From US20120034608A1, “MICRORNA AS A BIOMARKER OF PANCREATIC ISLET BETA-CELL ENGAGEMENT” (Merck Sharp & Dohme Corp., priority 2009, published 2012)

Tested on: INS-1 832/13 cells
Test: glucose dependent insulin secretion (GDIS) assay in INS-1 832/13 cells
Format: cell-based, rat
Conditions: 16 mM glucose, two-hour incubation in KRB
Description: We overexpressed the precursors of miR-132 and miR-212 to evaluate their possible contribution to β-cell function. MicroRNA miR-375 was included as a control as it been reported to have an inhibitory effect on GDIS (Poy et al., Nature 432: 226-230 (2004)). Chemically modified Pre-miR™ miRNA precursor molecules and Anti-miR™ miRNA inhibitors were purchased from Ambion (Foster City, Calif.). miRCURY LNA™ microRNA knockdown oligonucleotides were purchased from Exiqon (Woburn, Mass.). The oligonucleotide molecules were delivered to the cells by the Nucleofector Device (Amaxa, Gaithersburg, Md.). In brief, INS-1 cells were trypsinized, centrifuged, and resuspended in 100 μl Nucleofector solution V. Then 100-500 pmole RNA oligonucleotides were transfected to 3-million cells at the concentration of 1-5 μM with the Amaxa Nucleofector Device. Scramble controls from the vendors were used with the same transfection method. After electroporation, the cells were transferred to regular culture medium and then split into replicates in 96-well plates. Insulin secretion assay or LANCE cAMP assay were performed 48 hours post electroporation.
INS-1 cell glucose dependent insulin secretion (GDIS) assay was performed as follows. The GDIS assay was performed with cells grown to near confluency in 96-well plates. Prior to the assay, cells were washed once with PBS and pre-incubated for two hours in freshly prepared Krebs-Ringer Bicarbonate (KRB) medium without glucose. The medium were then replaced with KRB with 2, 8 or 16 mM glucose or along with 10 nM GLP-1. The cells were incubated for another two hours in a CO2 incubator. The media was then removed at the end of incubation, and assayed for insulin levels by Ultra-sensitive Rat Insulin ELISA kit (ALPCO, Salem, N.H.) or insulin immunoassay by Gyrolab workstation (GYROS AB, Uppsala, Sweden). Intracellular insulin was extracted by acid ethanol method for measuring intracellular insulin content. Total protein was measured by Pierce 660 nm Protein Assay from Pierce Biotechnology, Inc. (Rockford, Ill.).

GLP-1 (7-37) amide
increase of insulin secretion upon treatment with GLP-1: less than 50%
